The subject of assay [1] is auricular edema in atopic dermatitis-induced model mice (Type I Allergy Model). In words: Auricular edema inhibition in atopic dermatitis-induced model mice (type I allergy model, tick extract). In kind it is in vivo, NC/Nga mouse. The settings on record: for Relative auricular edema increase (%): 20 μl to both sides of auricle once a day from 7th day, measured on 28th day, mean ± SD, n=6. The procedure:
Test Compositions 6 to 8 were obtained by preparing 30% by weight aqueous ethanol solutions containing 0, 1.0 and 3.0% by weight, respectively, of N-acetyl-trans-4-hydroxy-L-proline. The pH values of the aqueous solutions were adjusted to 4.5 with sodium hydroxide.
Atopic dermatitis using NC/Nga mice was carried out in a same manner similar to the method of Sasagawa et al. [16th Japanese Society of Disease Models (1999)]. Auricular edema was induced by intradermal injection of 20 μg of a tick (Dermatophagoides pteronyssinus) extract as the antigen into the auricle of NC/Nga mouse (male, 8 week old, available from Charles River Japan, Inc.), once a day at a predetermined time in the 1st day, 3rd day and every day from 7th days after starting of the test. Each of Test Compositions 6 to 8 was applied at 20 μl to both sides of the auricle as the tested region, 6 hours after administration of the tick extract, once a day from the 7th day after starting of the test. The mice were used as six animals per each group.
A thickness of the auricle was measured on the 28th day after starting of the test using a dial thickness gauge (G-1A, manufactured by PEACOCK), and the relative auricular edema increase (%) was calculated in accordance with the following equation.
(§1) Relative auricular edema increase (%)=[(A1×B2)/(A2×B1)]×100
(§2) A1: Thickness of auricle after passed days in tested mice
(§3) A2: Thickness of auricle at the time of starting of the test in tested mice
(§4) B1: Thickness of auricle after passed days in untreated mice
(§5) B2: Thickness of auricle at the time of starting of the test in untreated mice

Assay [2] deals with epidermal ceramide synthesis. In words: Evaluation of the amount of epidermal ceramide synthesis in hairless mice. It is filed as in vivo, hairless mouse (SKH1:hr/hr:BR). The settings on record: for Relative amount of total ceramide synthesis (%) / Relative amount of ceramide III synthesis (%): relative to untreated mice; for Relative amount of ceramide III synthesis (%): 200 μl to dorsal skin once a day for one month, ceramide III = ceramides 1 and 2. The procedure: Test Compositions 1 to 5 were obtained by preparing 30% by weight aqueous ethanol solutions containing 0, 1.0, 3.0, 5.0 and 10.0% by weight, respectively, of N-acetyl-trans-4-hydroxy-L-proline. The pH values of the aqueous solutions were adjusted to 4.5 with sodium hydroxide.
Each of Test Compositions 1 to 5 was applied at 200 μl to the entire dorsal area as the tested region of each hairless mouse (SKH1:hr/hr:BR, male, 7 week old, available from Charles River Japan, Inc.) once a day for one month. The mice were used as four animals per each group.
Before starting of the application and one month after starting of the application, epidermal lipids were extracted from the entire dorsal area as the tested region of each mouse, and the activity of N-acetyl-trans-4-hydroxy-L-proline to synthesize ceramide was evaluated by measuring the ceramide content.
The epidermal lipids were obtained by extraction with 95% ethanol and further extracting the extract with hexane:methanol (2:3), followed by drying. The resulting epidermal lipids were dissolved in chloroform and separated by using silica gel thin layer chromatography in a manner similar to the method of Imokawa et al. [Journal of Investigative Dermatology, 96, 523 (1991)], and then the ceramide content was measured using a flying-spot scanning densitometer (manufactured by Shimadzu Corporation, CS-9000).
The ceramide content was calculated in accordance with the following equation, as the relative value to the change in the amount of ceramide synthesis in untreated mice.
Relative amount of ceramide synthesis (%)=[(A1×B2)/(A2×B1)]×100
A1: Ceramide content after application in tested mice
A2: Ceramide content before application in tested mice
B1: Ceramide content after application in untreated mice
B2: Ceramide content before application in untreated mice
Since it is known that the ceramides exist in several isomer forms, the calculation was carried out on each of the amount of total ceramide synthesis and those of syntheses of various ceramide isomers. As the standards, ceramide III (consisting of ceramides 1 and 2) and ceramide IV (consisting of ceramides 4 and 5) both manufactured by Sigma wer used. Here, total ceramide means the total of ceramides 1, 2, 4 and 5, and ceramide III means the total of ceramides 1 and 2. The ceramides 1, 2, 4 and 5 correspond to the compounds 1, 2, 4 and 5, respectively, described in FIG. 2 of Journal of Lipid Research, 24, 559 (1983).

Assay [3] relates to auricular edema in atopic dermatitis-induced model mice (Type I and Type IV Allergy Models). In words: Auricular edema inhibition in atopic dermatitis-induced model mice (type I and type IV allergy models, DNCB). It is filed as in vivo, NC/Nga mouse. The settings on record: for Relative auricular edema increase (%): 3% by weight, 20 μl to both sides of auricle once a day, mean ± SD, n=6. The procedure: Test Compositions 9 and 10 were obtained by preparing 30% by weight ethanol solutions containing 0 and 3.0% by weight, respectively, of N-acetyl-trans-4-hydroxy-L-proline. The pH values of the aqueous solutions were adjusted to 4.5 with sodium hydroxide.
Atopic dermatitis using NC/Nga mice was carried out in a manner similar to the method of Fujii et al. [Fundamentals and Clinics (Kiso-to-Rinsho), 31(8), 2693 (1997)]. Auricular edema was induced by applying 20 μl of 1.5% dinitrochlorobenzene (DNCB) to both sides of the auricle of NC/Nga mouse (male, 8 week old, available from Charles River Japan, Inc.), once a day at a predetermined time in the 1st, 3rd and 7th days after starting of the test. Each of Test Compositions 9 and 10 was applied at 20 μl to both sides of the auricle as the tested region, 6 hours after the application of DNCB and once a day every day from the 1st day after starting of the test. The mice were used as six animals per each group.
Just before the application of the test compositions to the auricle on the 11th, 12th, 14th and 17th days after starting of the test, a thickness of the auricle was measured using a dial thickness gauge (G-1A, manufactured by PEACOCK), and the relative auricular edema increase (%) was calculated in accordance with the following equation.
as §1, §2, §3, §4, §5

Setting [4] is: concentration of 1 to 3% by weight, long period of continuous use.

The structures appear in SMILES notation.

Regarding `CC(=O)N1C[C@H](O)C[C@H]1C(=O)O` [N-acetyl-trans-4-hydroxy-L-proline], the “Relative auricular edema increase (%)” value worked out at 120.9 ± 3.5% in assay [1] (1% by weight); 110.1 ± 4.4% in assay [1] (3% by weight); 360.1 ± 64.2% in assay [3] (11th day after starting of test); 399.7 ± 55.9% in assay [3] (12th day after starting of test); 429.0 ± 72.3% in assay [3] (14th day after starting of test); 312.1 ± 50.6% in assay [3] (17th day after starting of test). The “inhibition of auricular edema caused by the type I allergy model” value in assay [1] (setting [4]) was “significantly inhibited”. The “Relative amount of total ceramide synthesis (%)” value in assay [2] (1% by weight in 30% aqueous ethanol pH 4.5, 200 μl to dorsal skin once a day for one month) stood at 218.6%; in assay [2] (3% by weight in 30% aqueous ethanol pH 4.5, 200 μl to dorsal skin once a day for one month), 170.6%. Also, the “Relative amount of ceramide III synthesis (%)” value in assay [2] (1% by weight) is 239.5%; in assay [2] (3% by weight) it was 321.1%; in assay [2] (5% by weight), 209.6%; in assay [2] (10% by weight) it was 185.9%. Moreover, in assay [2] (setting [4]), the “total ceramide content in the epidermal stratum corneum” value is given as “significant increase”. The “ceramide III in the epidermal stratum corneum” value in assay [2] (concentration of 1 to 10% by weight, long period of continuous use) is “significant increase”. Besides, the “inhibition of auricular edema caused by the type I and type IV allergy models” value in assay [3] (concentration of 3% by weight, long period of continuous use) is recorded as “significantly inhibited”.

Source of the values: patent US20030185864A1, “Preventives or remedies for atopic dermatitis” (priority 2000, published 2003).
